# Experimental data reported in ChEMBL document CHEMBL6182949 (J Med Chem, 2025).
# Activity calls are given as the source filed them. The calls are words filed in the database; no cut-off is given here.
# Assays:
# [1] = molecular target: T1, CYP2C8 (Homo sapiens, UniProt P10632); assay: Inhibition of CYP2C8 in human liver microsome using amodiaquine as substrate at 10 uM preincubated for 5 mins followed by NADPH addition and measured after 5 mins by LC-MS/MS analysis relative to control; type: ADME; conditions: human liver microsomes, probe amodiaquine, time 10 min
# T1 sequence (P10632 whole entry): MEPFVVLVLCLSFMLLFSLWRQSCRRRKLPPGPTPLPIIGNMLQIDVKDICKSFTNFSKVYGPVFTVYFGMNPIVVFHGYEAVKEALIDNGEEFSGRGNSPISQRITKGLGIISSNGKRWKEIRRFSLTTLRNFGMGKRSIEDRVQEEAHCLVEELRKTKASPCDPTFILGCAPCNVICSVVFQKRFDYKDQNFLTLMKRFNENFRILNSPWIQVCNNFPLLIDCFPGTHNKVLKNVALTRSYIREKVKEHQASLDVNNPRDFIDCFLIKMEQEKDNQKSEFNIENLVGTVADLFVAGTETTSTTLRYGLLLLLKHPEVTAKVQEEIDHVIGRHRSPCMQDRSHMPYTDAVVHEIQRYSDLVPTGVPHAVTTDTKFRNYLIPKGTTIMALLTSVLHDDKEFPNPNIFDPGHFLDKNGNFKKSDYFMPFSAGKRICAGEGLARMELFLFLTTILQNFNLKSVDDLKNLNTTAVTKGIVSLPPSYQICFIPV
# [2] = Half life in cynomolgus monkey at 1 mg/kg, iv measured up to 24 hrs by LC-MS/MS analysis; type: ADME, organism-based, Macaca fascicularis; conditions: in vivo
# [3] = molecular target: CYP2C19 (Homo sapiens, UniProt P33261); assay: Inhibition of CYP2C19 in human liver microsome using (S)-mephenytoin as substrate at 10 uM preincubated for 5 mins followed by NADPH addition and measured after 30 mins by LC-MS/MS analysis relative to control; type: ADME; conditions: human liver microsomes, probe (S)-mephenytoin, time 35 min
# [4] = molecular target: Protein cereblon/Interleukin-1 receptor-associated kinase 4 (Macaca fascicularis) (UniProt A0A2K5UTB3+A0A2K5V3Y9); assay: PROTAC activity at CRBN/IRAK4 in cynomolgus monkey PBMC assessed as reduction in IRAK4 level measured at 48 hrs by immunoblotting analysis; type: cell-based; design: scale not given: the % may be the effect or the level left
# [5] = Cmax in cynomolgus monkey at 1 mg/kg, iv measured up to 24 hrs by LC-MS/MS analysis; type: ADME, organism-based, Macaca fascicularis; conditions: in vivo
# [6] = system: Mus musculus; assay: Anti-arthritic activity against collagen-induced arthritis DBA/1 mouse model assessed as reduction in pathological score at 30 mg/kg, po administered for 14 days; type: functional, organism-based; conditions: time 14.0 day
# [7] = molecular target: Protein cereblon/Interleukin-1 receptor-associated kinase 4 (Homo sapiens, UniProt Q9NWZ3+Q96SW2); assay: PROTAC activity at CRBN/IRAK4 in human THP-1 cells assessed as induction of IRAK4 degradation incubated for 24 hrs by HiBiT lytic reagent based analysis; type: cell-based
# [8] = system: Mus musculus; assay: Anti-arthritic activity against collagen-induced arthritis DBA/1 mouse model assessed as improvement in delta paw volume at 100 mg/kg, po administered for 14 days […]; type: functional, organism-based; conditions: time 14.0 day
# [9] = AUClast in cynomolgus monkey at 20 mg/kg, po measured up to 24 hrs by LC-MS/MS analysis; type: ADME, organism-based, Macaca fascicularis; conditions: in vivo
# [10] = Cmax in cynomolgus monkey at 20 mg/kg, po measured up to 24 hrs by LC-MS/MS analysis; type: ADME, organism-based, Macaca fascicularis; conditions: in vivo
# [11] = Tmax in Sprague-Dawley rat at 10 mg/kg, po measured up to 24 hrs by LC-MS/MS analysis; type: ADME, organism-based; conditions: in vivo
# [12] = Permeability across apical to basal side in human Caco-2 cells incubated for 120 mins by LC-MS/MS analysis; type: ADME, cell-based; conditions: read-out: permeability
# [13] = molecular target: CYP2D6 (Homo sapiens, UniProt P10635); assay: Inhibition of CYP2D6 in human liver microsome using dextromethorphan as substrate at 10 uM preincubated for 5 mins followed by NADPH addition and measured after 10 mins by LC-MS/MS analysis relative to control; type: ADME; conditions: human liver microsomes, probe dextromethorphan, time 15 min
# [14] = Tmax in cynomolgus monkey at 20 mg/kg, po measured up to 24 hrs by LC-MS/MS analysis; type: ADME, organism-based, Macaca fascicularis; conditions: in vivo
# [15] = Metabolic stability in human liver microsome assessed as half life at 1 uM measured up to 60 mins in presence of NADPH by LC-MS/MS analysis; type: ADME; conditions: liver microsomes
# [16] = system: Mus musculus; assay: Anti-arthritic activity against collagen-induced arthritis DBA/1 mouse model assessed as improvement in delta paw volume at 30 mg/kg, po administered for 14 days […]; type: functional, organism-based; conditions: time 14.0 day
# [17] = molecular target: Protein cereblon/Interleukin-1 receptor-associated kinase 4 (Mus musculus) (UniProt Q8C7D2+Q8R4K2); assay: In-vivo PROTAC activity at C57BL/6 mouse assessed as reduction in IRAK4 level in spleen at 100 mg/kg, po measured after 24 hrs by Western blot analysis; type: functional, organism-based; design: scale not given: the % may be the effect or the level left
# [18] = system: Mus musculus; assay: Anti-psoriasis effect in IMQ-induced C57BL/6 mouse assessed as reduction in erythema intensity administered topically twice daily for 6 days and measured after 24 hrs; type: functional, organism-based; conditions: dose 10-100 mg/kg, time 7.0 day
# [19] = molecular target: CYP2C9 (Homo sapiens, UniProt P11712); assay: Inhibition of CYP2C9 in human liver microsome using diclofenac as substrate at 10 uM preincubated for 5 mins followed by NADPH addition and measured after 10 mins by LC-MS/MS analysis relative to control; type: ADME; conditions: human liver microsomes, probe diclofenac, time 15 min
# [20] = system: Mus musculus; assay: Anti-arthritic activity against collagen-induced arthritis DBA/1 mouse model assessed as reduction in pathological score at 100 mg/kg, po administered for 14 days; type: functional, organism-based; conditions: time 14.0 day
# [21] = Metabolic stability in rat liver microsome assessed as half life at 1 uM measured up to 60 mins in presence of NADPH by LC-MS/MS analysis; type: ADME; conditions: liver microsomes
# [22] = Clearance in cynomolgus monkey at 1 mg/kg, iv measured up to 24 hrs by LC-MS/MS analysis; type: ADME, organism-based, Macaca fascicularis; conditions: in vivo
# [23] = Kinetic solubility of compound in FeSSIF at pH 5 incubated for 2 hr by LC-MS analysis; type: physicochemical; conditions: read-out: Kinetic_solubility
# [24] = Volume of distribution at steady state in Sprague-Dawley rat at 2 mg/kg, iv measured up to 24 hrs by LC-MS/MS analysis; type: ADME, organism-based; conditions: in vivo, read-out: Vdss
# [25] = Cmax in Beagle dog at 10 mg/kg, po measured up to 24 hrs by LC-MS/MS analysis; type: ADME, organism-based, Canis lupus familiaris; conditions: in vivo
# [26] = Cmax in Sprague-Dawley rat at 10 mg/kg, po measured up to 24 hrs by LC-MS/MS analysis; type: ADME, organism-based; conditions: in vivo
# [27] = Half life in Sprague-Dawley rat at 2 mg/kg, iv measured up to 24 hrs by LC-MS/MS analysis; type: ADME, organism-based; conditions: in vivo
# [28] = system: Mus musculus; assay: Anti-psoriasis effect in IMQ-induced C57BL/6 mouse assessed as reduction in spleen weight at 30 mg/kg administered topically twice daily for 6 days and measured after 24 hrs; type: functional, organism-based; conditions: time 7.0 day
# [29] = Inhibition of LPS-stimulated IL-6 release in human PBMC cells; type: functional, cell-based
# [30] = Metabolic stability monkey hepatocyte assessed as half life at 1 uM measured up to 120 mins by LC-MS/MS analysis; type: ADME, cell-based, Macaca mulatta; conditions: rhesus monkey, hepatocytes
# CYP2D6, sequence (P10635 whole entry): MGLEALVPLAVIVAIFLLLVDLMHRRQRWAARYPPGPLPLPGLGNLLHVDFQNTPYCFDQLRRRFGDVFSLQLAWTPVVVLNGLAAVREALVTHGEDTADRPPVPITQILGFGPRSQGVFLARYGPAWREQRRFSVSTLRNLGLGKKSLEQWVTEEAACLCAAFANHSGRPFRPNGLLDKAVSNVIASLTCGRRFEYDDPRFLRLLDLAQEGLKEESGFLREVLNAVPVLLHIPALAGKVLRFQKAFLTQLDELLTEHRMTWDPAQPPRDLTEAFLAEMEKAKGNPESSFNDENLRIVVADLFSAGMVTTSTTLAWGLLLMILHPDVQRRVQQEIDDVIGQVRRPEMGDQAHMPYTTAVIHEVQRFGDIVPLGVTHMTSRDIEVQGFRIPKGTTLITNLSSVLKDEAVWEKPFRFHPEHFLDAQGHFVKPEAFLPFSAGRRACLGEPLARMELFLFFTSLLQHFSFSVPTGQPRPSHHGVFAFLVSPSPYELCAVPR
# Protein cereblon/Interleukin-1 receptor-associated kinase 4 (Mus musculus), sequence (Q8C7D2 whole entry, looked up): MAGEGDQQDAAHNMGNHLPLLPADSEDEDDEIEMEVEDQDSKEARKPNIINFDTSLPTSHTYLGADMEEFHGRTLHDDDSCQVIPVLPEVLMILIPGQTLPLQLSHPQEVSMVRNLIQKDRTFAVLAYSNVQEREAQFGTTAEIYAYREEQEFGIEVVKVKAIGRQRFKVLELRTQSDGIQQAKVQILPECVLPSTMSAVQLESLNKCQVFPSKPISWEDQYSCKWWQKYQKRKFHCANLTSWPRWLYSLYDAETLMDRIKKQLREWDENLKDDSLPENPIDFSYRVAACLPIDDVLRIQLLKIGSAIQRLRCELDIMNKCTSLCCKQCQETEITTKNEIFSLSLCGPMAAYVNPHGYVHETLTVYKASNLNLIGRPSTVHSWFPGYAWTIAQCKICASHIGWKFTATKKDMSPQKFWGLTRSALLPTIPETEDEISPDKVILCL
# Protein cereblon/Interleukin-1 receptor-associated kinase 4 (Mus musculus), sequence (Q8R4K2 whole entry, looked up): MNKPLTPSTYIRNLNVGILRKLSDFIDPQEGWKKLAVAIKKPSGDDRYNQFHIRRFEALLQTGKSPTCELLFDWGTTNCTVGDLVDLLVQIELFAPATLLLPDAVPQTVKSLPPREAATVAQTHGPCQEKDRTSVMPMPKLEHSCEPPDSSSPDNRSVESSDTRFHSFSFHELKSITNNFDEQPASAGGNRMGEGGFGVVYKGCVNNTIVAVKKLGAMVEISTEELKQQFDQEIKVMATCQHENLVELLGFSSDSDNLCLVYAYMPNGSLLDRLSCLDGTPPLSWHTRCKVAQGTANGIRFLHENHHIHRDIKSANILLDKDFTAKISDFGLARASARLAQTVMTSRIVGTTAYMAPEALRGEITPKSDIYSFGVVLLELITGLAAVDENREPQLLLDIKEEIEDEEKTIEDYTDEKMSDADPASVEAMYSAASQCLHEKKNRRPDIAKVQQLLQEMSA
# Protein cereblon/Interleukin-1 receptor-associated kinase 4, sequence (Q9NWZ3 whole entry): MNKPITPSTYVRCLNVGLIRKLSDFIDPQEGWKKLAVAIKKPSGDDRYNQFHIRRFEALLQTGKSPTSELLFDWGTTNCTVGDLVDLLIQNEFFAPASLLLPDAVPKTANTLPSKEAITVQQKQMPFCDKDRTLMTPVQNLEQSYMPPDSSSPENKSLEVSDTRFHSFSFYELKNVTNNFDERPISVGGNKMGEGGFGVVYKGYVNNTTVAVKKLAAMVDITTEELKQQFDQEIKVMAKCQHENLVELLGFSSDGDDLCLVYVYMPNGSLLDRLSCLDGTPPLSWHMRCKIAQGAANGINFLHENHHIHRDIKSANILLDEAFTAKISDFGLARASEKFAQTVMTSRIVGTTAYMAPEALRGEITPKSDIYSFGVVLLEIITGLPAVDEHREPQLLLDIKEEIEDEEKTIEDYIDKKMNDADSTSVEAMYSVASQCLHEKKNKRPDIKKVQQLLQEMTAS
# Protein cereblon/Interleukin-1 receptor-associated kinase 4, sequence (Q96SW2 whole entry): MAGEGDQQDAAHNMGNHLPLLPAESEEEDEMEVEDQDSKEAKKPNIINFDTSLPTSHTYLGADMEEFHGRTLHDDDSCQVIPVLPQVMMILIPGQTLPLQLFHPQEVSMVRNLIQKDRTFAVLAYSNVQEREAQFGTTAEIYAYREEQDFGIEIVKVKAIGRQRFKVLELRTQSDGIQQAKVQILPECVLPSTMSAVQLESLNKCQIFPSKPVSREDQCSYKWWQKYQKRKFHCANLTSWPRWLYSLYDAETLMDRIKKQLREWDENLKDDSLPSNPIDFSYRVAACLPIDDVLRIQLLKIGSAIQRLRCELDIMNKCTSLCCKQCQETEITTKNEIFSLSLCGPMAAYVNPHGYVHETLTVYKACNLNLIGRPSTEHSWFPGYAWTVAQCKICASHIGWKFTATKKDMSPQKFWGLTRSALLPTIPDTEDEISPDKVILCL
# CYP2C9, sequence (P11712 whole entry): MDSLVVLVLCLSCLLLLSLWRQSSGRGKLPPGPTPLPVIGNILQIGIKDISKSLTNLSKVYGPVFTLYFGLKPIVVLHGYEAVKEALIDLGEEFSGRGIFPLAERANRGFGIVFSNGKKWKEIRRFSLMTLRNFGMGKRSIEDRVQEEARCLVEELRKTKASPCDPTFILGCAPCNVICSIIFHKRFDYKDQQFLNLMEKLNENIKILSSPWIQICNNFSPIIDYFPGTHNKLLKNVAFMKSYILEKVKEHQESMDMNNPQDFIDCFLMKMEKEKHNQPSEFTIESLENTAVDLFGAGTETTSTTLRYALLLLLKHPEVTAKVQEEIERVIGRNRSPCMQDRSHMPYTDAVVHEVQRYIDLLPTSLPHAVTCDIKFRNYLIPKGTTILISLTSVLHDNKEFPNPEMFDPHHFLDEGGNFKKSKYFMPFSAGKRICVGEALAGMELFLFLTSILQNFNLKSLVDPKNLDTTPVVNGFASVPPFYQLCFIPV
# Protein cereblon/Interleukin-1 receptor-associated kinase 4 (Macaca fascicularis), sequence (A0A2K5UTB3 1-488): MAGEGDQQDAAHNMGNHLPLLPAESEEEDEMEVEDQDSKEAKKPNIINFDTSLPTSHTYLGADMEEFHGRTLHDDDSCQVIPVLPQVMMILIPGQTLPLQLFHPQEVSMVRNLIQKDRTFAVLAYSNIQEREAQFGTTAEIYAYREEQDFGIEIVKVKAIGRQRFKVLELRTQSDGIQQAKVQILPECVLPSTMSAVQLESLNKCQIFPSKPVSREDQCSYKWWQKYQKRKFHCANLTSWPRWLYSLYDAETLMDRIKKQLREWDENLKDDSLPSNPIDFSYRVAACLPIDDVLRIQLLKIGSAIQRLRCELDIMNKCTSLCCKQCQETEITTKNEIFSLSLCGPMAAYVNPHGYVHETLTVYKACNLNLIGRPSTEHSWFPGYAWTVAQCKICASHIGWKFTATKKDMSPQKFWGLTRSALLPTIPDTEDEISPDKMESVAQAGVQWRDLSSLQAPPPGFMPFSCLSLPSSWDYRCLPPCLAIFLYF
# Protein cereblon/Interleukin-1 receptor-associated kinase 4 (Macaca fascicularis), sequence (A0A2K5V3Y9 1-460 partner): as the sequence (Q9NWZ3 whole entry) above, with I118V, C128Y, V138L, P148L, T208A, A459D counted along it
# CYP2C19, sequence (P33261 whole entry): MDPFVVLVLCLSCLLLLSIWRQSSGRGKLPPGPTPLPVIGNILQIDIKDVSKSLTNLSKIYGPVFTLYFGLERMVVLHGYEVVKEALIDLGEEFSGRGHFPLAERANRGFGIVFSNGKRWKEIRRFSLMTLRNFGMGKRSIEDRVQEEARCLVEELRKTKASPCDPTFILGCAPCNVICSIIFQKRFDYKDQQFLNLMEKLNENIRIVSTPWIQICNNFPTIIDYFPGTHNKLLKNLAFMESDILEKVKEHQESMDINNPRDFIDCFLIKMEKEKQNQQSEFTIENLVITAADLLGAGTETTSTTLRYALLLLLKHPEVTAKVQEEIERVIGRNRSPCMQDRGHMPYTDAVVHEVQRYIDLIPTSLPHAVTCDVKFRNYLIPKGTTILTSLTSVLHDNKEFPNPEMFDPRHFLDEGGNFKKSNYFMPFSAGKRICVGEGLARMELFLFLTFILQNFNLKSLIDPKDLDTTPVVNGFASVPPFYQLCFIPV
structure (smiles),measurement,setting,value
Cn1c(=O)n(C2CCC(=O)NC2=O)c2cccc(C#CCO[C@H]3CC[C@H](CN4CCC5(CC4)Cc4cc(NC(=O)c6coc7cccnc67)c(N6CCC(CO)CC6)cc4O5)CC3)c21 (stereo not given in full),"inhibition at 5 min, 10 µM",[1],12.4%
same,half-life,[2],8.67 h
same,"inhibition at 0.5 h, 10 µM",[3],45.1%
same,Activity,[4],83%
same,Cmax,[5],672 ng/mL
same,Activity,[6],Active
same,DC50,[7],4.01 nM
same,Activity,[8],Active
same,AUC(0-t) at 24 h,[9],4000 ng·h/mL
same,Cmax,[10],229 ng/mL
same,Tmax,[11],6 h
same,Papp A→B at 2 h,[12],0.09 ×10⁻⁶ cm/s
same,"inhibition at 10 min, 10 µM",[13],13.8%
same,Tmax,[14],6 h
same,half-life at 1 µM,[15],> 3.07 h
same,Activity,[16],Active
same,Activity,[17],> 80%
same,Activity,[18],Dose-dependent-effect
same,"inhibition at 10 min, 10 µM",[19],13.9%
same,Activity,[20],Active
same,half-life at 1 µM,[21],> 3.07 h
same,clearance,[22],9.2 mL/min/kg
same,solubility kinetic at 2 h,[23],7.78 µg/mL
same,Vd,[24],2.66 L/kg
same,Cmax,[25],360 ng/mL
same,Cmax,[26],613 ng/mL
same,half-life,[27],4 h
same,Activity,[28],Active
same,IC50,[29],16.4 nM
same,half-life at 1 µM,[30],> 6.18 h
